Publication PMC10492782, “Exploiting the aggregation propensity of beta-lactamases to design inhibitors that induce enzyme misfolding” (Nature Communications, 2023)
≈ marks a conversion by molar mass, not a printed value. Where two headings read alike, the source gives them in different places. Residues, ends and D or L forms follow the SMILES beside them.

What was measured:
[1] = tested on: E. coli strain UZ_TEM104; assay: microbe, parasite or virus in culture; format: cell-based, Escherichia coli
[2] = tested on: E. coli strain UZ_TEM104; conditions: broth microdilution, MHB, overnight 37 °C, peptide alone
Source text: Pept-Ins consist of a tandem repeat of the APR, each instance flanked by charged amino acids for solubility and separated by a short peptide linker[20],[21],[24] (Fig. 3A). Previous work has shown that good bacterial uptake can be achieved using one positively charged arginine residue on the N-terminal side of each APR in the tandem and two arginine residues on the C-terminal side[20],[21]. […] As before, we employed a single Pro residue as a linker between the APRs and focused on an APR length of seven, extending shorter APRs to this length by incorporating flanking amino acids unless they were obvious aggregation breakers (Arg, Lys, Asp, Glu or Pro, see Table 1).
Determination of MIC values was performed using the broth microdilution method according to the EUCAST guideline, which was performed in 96-well polystyrene flat-bottom microtiter plates (BD Biosciences). Briefly, a single colony was inoculated into 5 mL Difco™ Mueller–Hinton Broth (BD Biosciences Ref 275730) and grown to the end-exponential growth phase in a shaking incubator at 37 °C. Cultures were subsequently diluted to a MacFarland (0.5 optical density) to reach 10^6 CFU/mL in fresh MHB medium. 50 µl of different concentrations of peptides ranging from 128 to 2 µg/mL were serially diluted to the sterile 96-well plate in MHB. 50 µL of the diluted bacteria in MHB were next pipetted into 96-well plates to reach the final volume of 100 µL. The bacteria grown with the maximum concentration of carrier and medium were considered positive and negative controls, respectively. The plates were statically incubated overnight at 37 °C to allow bacterial growth. OD was measured at 590 nm using a multipurpose ultraviolet–visible plate reader, and the absorbance of the bacterial growth was measured using an absorbance reader.

[3] = tested on: E. coli; format: cell-based, Escherichia coli; conditions: E.coli TEM104, Suppl. Figure 5
Method: For the analysis of synergy between the peptides and other antibiotics, a checkerboard assay was performed. Based on the MICs of the selected peptides, a checkerboard assay was designed to define their FICIs (Fractional Inhibitory Concentration Index) in combinations against different clinical isolates[53],[54]. Briefly, a total volume of 100 μL of Mueller–Hinton broth was distributed into each well of the 96-well plates. The first compound (peptide) of the combination was serially diluted vertically (128, 64, 32, 16, 8, 4, 2, 0 μg/mL) while the other drug (Beta-lactam or Kanamycin) was diluted horizontally in a 96-well plate (from 3200 to 3 μg/ mL). The total volume of each microtiter well was inoculated with 100 μL of MHB containing 1 × 10^6 CFU/mL bacteria. The plates were incubated at 37 °C for 24 h under aerobic conditions without shaking. Calculation of the FICI is used to analyze the results of the checkerboard assay by estimating the degree of synergistic effect. FICI is calculated as the sum of the individual fractional inhibitory concentrations (FICs) for each drug (where MIC A and MIC B denote the MIC of each drug alone, and MIC AA+B and MIC BA+B denote the concentrations of A and B in the drug combination). FICI = (MIC AA+B/MIC A) + (MIC BA+B/MIC B). With FICI ≤ 0.5, the combination of antibiotics is considered as a synergistic effect, 0.5 < FICI ≤ 1 indicates additivity, FICI > 1 indicates indifference. […]
Supplementary Figure 5: Fraction Inhibitory Concentration Index (FICI) values obtained from checkerboard assays between control peptides 1-4 and penicillin G. The peptide sequences were obtained by introducing proline mutations in TEM3.2 as follows: Pro1 […]
([…]), Pro2 ([…]), Pro3
([…]) and Pro4 ([…]). Each of the five dots […]
per condition indicates an independent experiment of the measurement consisting of 96 datapoints. FICI values below 0.5 indicate synergy (shaded in green). Values between 0.5 and 1.0 indicate additivity (shaded in yellow) and values greater than 1 indicate indifference (shaded in red) between the combined substances. […]

[4] = tested on: E. coli TEM-148; assay: VITEK 2 AST antimicrobial susceptibility testing; format: cell-based, Escherichia coli; conditions: for Interoretation: E. coli TEM-148; for Interpretation: VITEK 2 AST card
Method: (§1) Beta-lactamase clinical samples were collected from University Hospitals Leuven and tested for ESBL production using the disk diffusion method. The beta-lactamase reference isolates were purchased from International Health Management Associates (IHMA). Bacterial strains were cultivated in Mueller–Hinton Broth (MHB, Difco) at 37 °C. Whenever required, growth media were supplemented with appropriate antibiotics to the medium or plates (kanamycin 30 µg/mL, L-arabinose 0.5 mg/mL, and IPTG […]). Escherichia coli BL21 (ThermoFisher Scientific, Belgium) was used for cloning and plasmid amplification. For the selection of antibiotic resistant colonies, E. coli carrying plasmids was grown in LB agar plates supplemented with the relevant antibiotic. Bacterial CFU counting was done on blood agar plates (BD Biosciences, Belgium) or MHA agar plates. Species identification and antibiograms for all clinical isolates were performed using MALDI-Tof and VITEK® 2 automated system (BioMérieux, France).
(§2) Khodaparast et al Supplementary data
(§3) study. […] Abbreviations: S,
(§4) susceptible; I, intermediate; R, resistant.

[5] = tested on: E. coli TEM-104; assay: VITEK 2 AST antimicrobial susceptibility testing; format: cell-based, Escherichia coli; conditions: for Interoretation: E. coli TEM-104; for Interpretation: VITEK 2 AST card
Method: as §1, §2, §3, §4

[6] = tested on: E. coli TEM-206; assay: VITEK 2 AST antimicrobial susceptibility testing; format: cell-based, Escherichia coli; conditions: for Interoretation: E. coli TEM-206; for Interpretation: VITEK 2 AST card
Method: as §1, §2, §3, §4

[7] = tested on: E. coli SHV1 (APHA); assay: VITEK 2 AST antimicrobial susceptibility testing; format: cell-based, Escherichia coli; conditions: for Interoretation: E. coli SHV154; for Interpretation: VITEK 2 AST card
Method: as §1, §2, §3, §4

[8] = tested on: E. coli NDM5b; assay: VITEK 2 AST antimicrobial susceptibility testing; format: cell-based, Escherichia coli; conditions: for Interoretation: E. coli NDM5b; for Interpretation: VITEK 2 AST card
Method: as §1, §2, §3, §4

[9] = tested on: E. coli NDM5a; assay: VITEK 2 AST antimicrobial susceptibility testing; format: cell-based, Escherichia coli; conditions: for Interoretation: E. coli NDM5a; for Interpretation: VITEK 2 AST card
Method: as §1, §2, §3, §4

[10] = tested on: E. coli TEM-16; assay: VITEK 2 AST antimicrobial susceptibility testing; format: cell-based, Escherichia coli; conditions: for Interoretation: E. coli TEM-16; for Interpretation: VITEK 2 AST card
Method: as §1, §2, §3, §4

[11] = tested on: E. coli TEM-30; format: cell-based, Escherichia coli; conditions: for Interoretation: E. coli TEM-30; for Interpretation: VITEK 2 AST card
Method: as §1, §2, §3, §4

[12] = E. coli UZ_TEM104, concentration of additive 50 (mg/mL [sic])
[13] = in the presence of additive (peptide or tazobactam) at fixed 50 μg/mL

For CC(=O)N[C@@H](CCCNC(=N)N)C(=O)N[C@@H](Cc1ccccc1)C(=O)N[C@@H](Cc1ccccc1)C(=O)N[C@@H](C)C(=O)N[C@@H](C)C(=O)N[C@@H](Cc1ccccc1)C(=O)N[C@@H](CS)C(=O)N[C@@H](CC(C)C)C(=O)N[C@@H](CCCNC(=N)N)C(=O)N[C@@H](CCCNC(=N)N)C(=O)N1CCC[C@H]1C(=O)N[C@@H](CCCNC(=N)N)C(=O)N[C@@H](Cc1ccccc1)C(=O)N[C@@H](Cc1ccccc1)C(=O)N[C@@H](C)C(=O)N[C@@H](C)C(=O)N[C@@H](Cc1ccccc1)C(=O)N[C@@H](CS)C(=O)N[C@@H](CC(C)C)C(=O)N[C@@H](CCCNC(=N)N)C(=O)N[C@@H](CCCNC(=N)N)C(N)=O [TEM1.0] (Ac-RFFAAFCLRRPRFFAAFCLRR-NH2), the MIC penicillin [1, 12] was 1600 mg/mL (≈ 594 mM), the MIC penicillin [1, 13] was 1.6 mg/mL and the MIC peptide [2] was >0.1 mg/mL.
In the case of Ac-RAGWFIARRPRAGWFIARR-NH2 [TEM5.0], the MIC penicillin [1, 12] is reported as 1600 mg/mL, the MIC penicillin [1, 13] is reported as 1.6 mg/mL and the MIC peptide [2] is reported as 0.1 mg/mL.
With Ac-RGIIAALGRRPRGIIAALGRR-NH2 [TEM6.0] the MIC penicillin [1, 12] was 1600 mg/mL, the MIC penicillin [1, 13] was 1.6 mg/mL and the MIC peptide [2] was >0.1 mg/mL.
Ac-RIVVIYTTRRPRIVVIYTTRR-NH2 [TEM7.0] was tested, and the MIC penicillin [1, 12] was 1600 mg/mL, the MIC penicillin [1, 13] was 1.6 mg/mL and the MIC peptide [2] was >0.1 mg/mL.
With Ac-RLLLTTIGRRPRLLLTTIGRR-NH2 [TEM2.0] the MIC penicillin [1, 12] was 800 mg/mL, the MIC penicillin [1, 13] was 0.8 mg/mL and the MIC peptide [2] was >0.1 mg/mL.
Ac-RLLTLASRRPRLLTLASRR-NH2 [TEM4.0] was tested, and the MIC penicillin [1, 12] was 1600 mg/mL, the MIC penicillin [1, 13] was 1.6 mg/mL and the MIC peptide [2] was 0.1 mg/mL.
With Ac-RLPPFLHNRRPRLPPFLRQRR-NH2 [Pro2] the FICi values ([3]; Replicate1) was 0.75, the FICi values ([3]; Replicate2) was 0.625 and the FICi values ([3]; Replicate3) was 0.67. It also gave an FICi values ([3]; Replicate4) of 0.71.
Ac-RLTAFLHNRRPRLTAFLHNRR-NH2 [TEM3.0] was tested, and the MIC peptide [2] was >0.1 mg/mL.
With Ac-RLTPFPHNRRPRLTPFPRQRR-NH2 [Pro4] the FICi values ([3]; Replicate1) was 2, the FICi values ([3]; Replicate2) was 2 and the FICi values ([3]; Replicate3) was 2. It also gave an FICi values ([3]; Replicate4) of 2.
With Ac-RPTAPLHNRRPRPTAPLRQRR-NH2 [Pro1] the FICi values ([3]; Replicate1) was 2, the FICi values ([3]; Replicate2) was 2 and the FICi values ([3]; Replicate3) was 2. The FICi values ([3]; Replicate4) was 2.
Ac-RPTPFLHNRRPRPTPFLRQRR-NH2 [Pro3] was tested, and the FICi values ([3]; Replicate1) was 2, the FICi values ([3]; Replicate2) was 2 and the FICi values ([3]; Replicate3) was 2. It also gave an FICi values ([3]; Replicate4) of 2.
Colistin was tested, and the Interoretation [4] was “S”, the Interpretation [4] was “S” and the Interoretation [5] was “S”. For the same compound, the Interpretation [5] was “S”, the Interoretation [6] was “S” and the Interpretation [6] was “S”. The Interoretation [7] was “S”, the Interpretation [7] was “S” and the Interoretation [8] was “S”. For the same compound, the Interpretation [8] was “S”, the Interoretation [9] was “S” and the Interpretation [9] was “S”. The Interoretation [10] was “S”, the Interpretation [10] was “S” and the Interoretation [11] was “S”. For the same compound, the Interpretation [11] was “S”.
With Piperacillin / tazobactam the Interoretation [4] was “*R”, the Interpretation [4] was “*R” and the Interoretation [5] was “*I”. For the same compound, the Interpretation [5] was “*I”, the Interoretation [6] was “*R” and the Interpretation [6] was “*R”. For the same compound, the Interoretation [7] was “R”, the Interpretation [7] was “R” and the Interoretation [8] was “R”. For the same compound, the Interpretation [8] was “R”, the Interoretation [9] was “R” and the Interpretation [9] was “R”. The Interoretation [10] was “*R”, the Interpretation [10] was “*R” and the Interoretation [11] was “*R”. For the same compound, the Interpretation [11] was “*R”.
In the case of Trimethoprim/sulfamethoxazole, the Interoretation [4] is reported as “R”, the Interpretation [4] is reported as “R” and the Interoretation [5] is reported as “S”. For the same compound, the Interpretation [5] was “S”, the Interoretation [6] was “R” and the Interpretation [6] was “R”. For the same compound, the Interoretation [7] was “R”, the Interpretation [7] was “R” and the Interoretation [8] was “R”. For the same compound, the Interpretation [8] was “R”, the Interoretation [9] was “S” and the Interpretation [9] was “S”. The Interoretation [10] was “S”, the Interpretation [10] was “S” and the Interoretation [11] was “S”. The Interpretation [11] was “S”.
